According to US20250026741A1, “INHIBITORS OF THE ONCOGENIC SHP2 PHOSPHATASE AND USES THEREOF” (Sanford Burnham Prebys Medical Discovery Institute, priority 2021, published 2025):
pIC50: −log10 of the molar value.

Key:
Format in all cases: biochemical
[1] = target: full-length SHP2 wild-type (SHP2-WT) (Homo sapiens (Human), UniProt Q06124); assay: DiFMUP fluorescence intensity phosphatase inhibition assay, SHP2-WT activated with IRS-1 peptide; details: DiFMUP at Km (60 μM), IRS-1 peptide activated
From the text: (§1) To test the synthesized compounds for their potential to inhibit SHP2 activity, a fluorescence intensity-based assay using 6,8-difluoro-4-methylumbelliferyl phosphate (DiFMUP) as the substrate was adapted for three recombinant SHP2 constructs: 1) the SHP2 catalytic domain (SHP2cat; residues 248-527), 2) the full-length SHP2-E76K oncogenic mutant, and 3) the full-length SHP2 wild-type (SHP2-WT). The recombinant SHP2 proteins were expressed and purified. A dually phosphorylated peptide derived from the insulin receptor substrate 1 (IRS-1) served as a surrogate binding protein and was used to activate SHP2-WT. […] Michaelis-Menten experiments to determine the DiFMUP Michaelis-Menten constant (Kmn) for each SHP2 construct were performed and yielded the following values: SHP2-WT, Km=60 μM; SHP2-E76K, Km=20 μM; SHP2cat, Km=20 μM. Relative maximum rates (Vmax) of the DiFMUP reactions were as follows: SHP2-WT, Vmax=871 AFU/min; SHP2-E76K, Vmax, =2730 AFU/min; SHP2cat, Vmax=2912 AFU/min. IC50 values for each compound were determined from initial rates in 10-point dose-response assays using DiFMUP at a concentration corresponding to its Km value for the respective SHP2 construct.
(§2) SHP2 inhibitors were tested at room temperature (RT) in a 384-well plate format standard phosphatase fluorescence intensity assay using DiFMUP (Invitrogen/Thermo Fisher Scientific, Carlsbad, CA) as a substrate and a total reaction volume of 25 μL. SHP2 inhibitors or vehicle (DMSO) were spotted in triplicate into a black Greiner FLUOTRAC™ 200 384-well microplate (#781076, Greiner) for a 10-point dose-response assay using an Echo®555 Liquid Handler (Labcyte, Inc., San Jose, CA). PTP working solutions were prepared at a 0.625 nM concentration (for a final concentration of 0.5 nM) in buffer containing 50 mM Bis-Tris pH 6.0, 50 mM NaCl, 5 mM DTT, and 0.01% Tween® 20. Prior to the assay, a dually phosphorylated insulin receptor substrate 1 (IRS-1) peptide [625 nM (500 nMfinal) (30)] was added to full-length WT SHP2 working solutions and incubated for 20 min. DiFMUP working solutions at 5× final concentration were prepared in 50 mM Bis-Tris pH 6.0, 50 mMNaCl, and 0.01% Tween 20. 20 μL of PTP working solution was dispensed into the microplate and incubated with inhibitor for 20 min at RT. […] The reaction was initiated by addition of 5 μL DiFMUP working solutions. Fluorescence intensity was measured in kinetic mode (every minute for 7 or 10 min) using a Tecan Spark® Multimode Microplate Reader (Tecan, Groedig, Austria) with an excitation wavelength of 360 nm and an emission wavelength of 460 nm. The initial rates were determined from the linear progression curves of the PTP reaction. The nonenzymatic hydrolysis of the substrate was corrected by using a control without addition of enzyme. IC50 values were calculated from the corrected initial rates by nonlinear regression using the program GraphPad Prism (GraphPad Software, Inc., San Diego, CA) Version 8. Dose-response inhibition assays of SHP2cat using the substrate OMFP were performed similarly as described above for DiFMUP. OMFP was used at a concentration corresponding to its Km value for SHP2cat (50 μM final). Fluorescence intensity was measured in kinetic mode (every minute for 10 min) using a Tecan Spark Multimode Microplate Reader with an excitation wavelength of 485 nm and an emission wavelength of 535 nm. Initial rates were determined and IC50 vales calculated as described above.

[2] = target: full-length SHP2-E76K oncogenic mutant (Homo sapiens (Human), UniProt Q06124, E76K); assay: DiFMUP fluorescence intensity phosphatase inhibition assay, SHP2-E76K; details: DiFMUP at Km (20 μM), 10-point dose-response; read-out: SHP2-E76K IC50
full-length SHP2-E76K oncogenic mutant, sequence (Q06124 whole entry E76K): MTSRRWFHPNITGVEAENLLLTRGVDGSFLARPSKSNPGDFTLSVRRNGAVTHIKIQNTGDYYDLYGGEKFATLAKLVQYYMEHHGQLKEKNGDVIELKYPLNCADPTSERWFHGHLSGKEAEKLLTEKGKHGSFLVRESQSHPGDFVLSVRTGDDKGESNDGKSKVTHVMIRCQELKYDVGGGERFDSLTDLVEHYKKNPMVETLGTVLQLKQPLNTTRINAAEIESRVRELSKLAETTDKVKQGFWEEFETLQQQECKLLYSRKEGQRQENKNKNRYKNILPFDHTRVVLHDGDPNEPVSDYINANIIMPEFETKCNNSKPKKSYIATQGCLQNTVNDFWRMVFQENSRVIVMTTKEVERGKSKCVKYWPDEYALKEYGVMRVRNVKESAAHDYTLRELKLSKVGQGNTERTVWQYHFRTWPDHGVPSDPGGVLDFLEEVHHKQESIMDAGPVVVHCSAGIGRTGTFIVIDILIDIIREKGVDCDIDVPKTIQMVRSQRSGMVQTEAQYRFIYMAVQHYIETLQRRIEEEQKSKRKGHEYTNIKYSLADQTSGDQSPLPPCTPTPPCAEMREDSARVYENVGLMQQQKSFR
From the text: as §1, §2

[3] = target: SHP2 catalytic domain (SHP2cat; residues 248-527) (Homo sapiens (Human), UniProt Q06124); assay: DiFMUP fluorescence intensity phosphatase inhibition assay, SHP2cat; details: DiFMUP at Km (20 μM); read-out: SHP2cat IC50
SHP2 catalytic domain (SHP2cat; residues 248-527), sequence (Q06124 248-527): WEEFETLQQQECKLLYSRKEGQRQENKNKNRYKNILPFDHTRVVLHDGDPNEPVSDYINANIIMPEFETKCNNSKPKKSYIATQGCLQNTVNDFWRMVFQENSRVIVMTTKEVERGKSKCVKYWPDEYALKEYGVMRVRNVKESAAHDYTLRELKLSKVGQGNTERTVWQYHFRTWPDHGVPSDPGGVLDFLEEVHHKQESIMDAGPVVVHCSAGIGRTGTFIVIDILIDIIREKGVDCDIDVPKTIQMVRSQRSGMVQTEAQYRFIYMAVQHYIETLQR
From the text: as §1, §2

Row | Compound | pIC50 [1] | pIC50 [2] | pIC50 [3]
1 | O=C(NNc1ccccc1)c1cc(-c2ccc(/C=C3\Sc4ccccc4C3=O)o2)ccc1O [#11, (Z)-2-Hydroxy-5-(5-((3-oxobenzo[b]thiophen-2(3H)-ylidene)methyl)furan-2-yl)-N′-phenylbenzohydrazide] | 4.70 to 6.00 | 4.70 to 6.00 | 4.70 to 6.00
2 | O=C(Nc1ccccc1)c1cc(-c2ccc(/C=C3\Sc4ccccc4C3=O)o2)ccc1F [#24, (Z)-2-Fluoro-5-(5-((3-oxobenzo[b]thiophen-2(3H)-ylidene)methyl)furan-2-yl)-N-phenylbenzamide] | ≤ 4.00 | ≤ 4.00 | –
3 | O=C(/C=C/c1ccc(Br)o1)c1cccc(C(=O)/C=C/c2ccc(Br)o2)c1 [#48] | 4.00 to 4.70 | 4.00 to 4.70 | –
4 | O=C1/C(=C/c2ccc(O)c(C(=O)O)c2)CC/C1=C\c1ccc(O)c(C(=O)O)c1 [#47] | 4.70 to 6.00 | 4.70 to 6.00 | –
5 | O=C1CCC/C1=C\c1ccc(-c2ccc(O)c(C(=O)O)c2)o1 [#06, 2-Hydroxy-5-(5-((2-oxocyclopentylidene)methyl)furan-2-yl)benzoic acid] | 4.00 to 4.70 | 4.70 to 6.00 | 4.70 to 6.00
6 | O=C(/C=C/c1ccc(-c2cccc(C(=O)O)c2)o1)/C=C/c1ccc(-c2cccc(C(=O)O)c2)o1 [#41] | ≥ 6.00 | ≥ 6.00 | ≥ 6.00
7 | CC(C)NC(=O)c1cc(-c2ccc(/C=C3\Oc4ccccc4C3=O)o2)ccc1O [#26] | 4.70 to 6.00 | 4.70 to 6.00 | –
8 | O=C1/C(=C/c2ccc(-c3ccc(O)cc3)o2)Sc2ccccc21 [#17, (Z)-2-((5-(4-Hydroxyphenyl)furan-2-yl)methylene)benzo[b]thiophen-3(2H)-one] | ≤ 4.00 | 4.00 to 4.70 | –
9 | O=C(NCCO)c1cc(-c2ccc(/C=C3\Sc4ccccc4C3=O)o2)ccc1O [#22, (Z)-2-Hydroxy-N-(2-hydroxyethyl)-5-(5-((3-oxobenzo[b]thiophen-2(3H)-ylidene)methyl)furan-2-yl)benzamide] | ≤ 4.00 | ≤ 4.00 | –
10 | O=C1/C(=C/c2ccc(-c3ccc(O)c(C(=O)O)c3)o2)CCC/C1=C\c1ccc(-c2ccc(O)c(C(=O)O)c2)o1 [#40] | ≥ 6.00 | ≥ 6.00 | ≥ 6.00
11 | CN1CCN(C(=O)c2cc(-c3ccc(/C=C4\Sc5ccccc5C4=O)o3)ccc2O)CC1 [#23, (Z)-2-((5-(4-Hydroxy-3-(4-methylpiperazine-1-carbonyl)phenyl)furan-2-yl)methylene)benzo[b]thiophen-3(2H)-one] | ≤ 4.00 | ≤ 4.00 | –
12 | O=C(/C=C/c1ccc(-c2ccc(O)c(C(=O)O)c2)o1)c1ccccc1 [#37] | 4.00 to 4.70 | 4.00 to 4.70 | –
13 | O=C1/C(=C/c2ccc(-c3ccc(O)c(-c4nn[nH]n4)c3)o2)Sc2ccccc21 [#04, (Z)-2-((5-(4-Hydroxy-3-(2H-tetrazol-5-yl)phenyl)furan-2-yl)methylene)benzo[b]thiophen-3(2H)-one] | 4.70 to 6.00 | 4.70 to 6.00 | 4.70 to 6.00
14 | O=C(O)c1cccc(-c2cccc(/C=C3\Sc4ccccc4C3=O)c2)c1 [#30] | 4.70 to 6.00 | 4.70 to 6.00 | –
15 | O=C1CCCC/C1=C\c1ccc(-c2ccc(O)c(C(=O)O)c2)o1 [#14, 2-Hydroxy-5-(5-((2-oxocyclohexylidene)methyl)furan-2-yl)benzoic acid] | 4.00 to 4.70 | 4.00 to 4.70 | –
16 | O=C(NCc1ccccc1)c1cccc(-c2ccc(/C=C3\Sc4ccccc4C3=O)o2)c1 [#16, (Z)—N-Benzyl-3-(5-((3-oxobenzo[b]thiophen-2(3H)-ylidene)methyl)furan-2-yl)benzamide] | ≤ 4.00 | 4.00 to 4.70 | –
17 | COc1cccc(NC(=O)c2cccc(-c3ccc(/C=C4\Sc5ccccc5C4=O)o3)c2)c1 [#33] | 4.00 to 4.70 | 4.70 to 6.00 | –
18 | O=C1/C(=C/c2ccc(-c3ccc(O)c(C(=O)O)c3)o2)CC/C1=C\c1ccc(-c2ccc(O)c(C(=O)O)c2)o1 [#44] | 4.70 to 6.00 | ≥ 6.00 | –
19 | O=C(O)c1cccc(-c2ccc(/C=C3\Cc4ccccc4C3=O)o2)c1 [#34] | 4.00 to 4.70 | 4.70 to 6.00 | –
20 | O=C1/C(=C/c2ccc(-c3ccc(O)c(C(=O)N4CCNCC4)c3)o2)Sc2ccccc21 [#19, (Z)-2-((5-(4-Hydroxy-3-(piperazine-1-carbonyl)phenyl)furan-2-yl)methylene)benzo[b]thiophen-3(2H)-one] | ≤ 4.00 | 4.00 to 4.70 | –

Now from value to molecule:

Row | pIC50 [1] | pIC50 [2] | pIC50 [3] | Compound
21 | ≤ 4.00 | ≤ 4.00 | – | O=C1/C(=C/c2ccc(-c3ccccc3)o2)Sc2ccccc21 [#25, (Z)-2-((5-phenylfuran-2-yl)methylene)benzo[b]thiophen-3(2H)-one]
22 | 4.70 to 6.00 | 4.70 to 6.00 | 4.70 to 6.00 | O=C(O)c1cccc(-c2ccc(/C=C/C(=O)c3cccc(C(=O)/C=C/c4ccc(-c5cccc(C(=O)O)c5)o4)c3)o2)c1 [#45]
23 | 4.00 to 4.70 | 4.70 to 6.00 | – | O=C(Nc1ccccc1)c1cc(F)cc(-c2ccc(/C=C3\Sc4ccccc4C3=O)o2)c1 [#29]
24 | 4.70 to 6.00 | 4.70 to 6.00 | – | C/C=C1\CC/C(=C\c2ccc(-c3ccc(O)c(C(=O)O)c3)o2)C1=O [#27]
25 | ≤ 4.00 | 4.00 to 4.70 | – | O=C(Nc1ccc2ccccc2n1)c1cccc(-c2ccc(/C=C3\Sc4ccccc4C3=O)o2)c1 [#38]
26 | 4.70 to 6.00 | 4.70 to 6.00 | 4.70 to 6.00 | O=C(O)c1cc(-c2ccc(/C=C3\Oc4ccccc4C3=O)o2)ccc1O [#07, (Z)-2-Hydroxy-5-(5-((3-oxobenzofuran-2(3H)-ylidene)methyl)furan-2-yl)benzoic acid]
27 | 4.00 to 4.70 | 4.00 to 4.70 | – | O=C1CCC/C1=C\c1ccc(-c2cccc(C(=O)O)c2)o1 [#36]
28 | ≥ 6.00 | ≥ 6.00 | ≥ 6.00 | O=C1/C(=C/c2ccc(-c3cccc(C(=O)O)c3)o2)CC/C1=C\c1ccc(-c2cccc(C(=O)O)c2)o1 [#42]
29 | ≤ 4.00 | ≤ 4.00 | – | O=C(Nc1ccccc1)c1cc(-c2ccco2)ccc1O [#21, 5-(Furan-2-yl)-2-hydroxy-N-phenylbenzamide]
30 | 4.70 to 6.00 | 4.70 to 6.00 | – | O=C(O)c1ccc(-c2ccc(/C=C3\Sc4ccccc4C3=O)o2)cc1 [#28]
31 | 4.00 to 4.70 | 4.70 to 6.00 | – | CC(C)NC(=O)c1cc(-c2ccc(/C=C3\Sc4ccccc4C3=O)o2)ccc1O [#13, (Z)-2-Hydroxy-N-isopropyl-5-(5-((3-oxobenzo[b]thiophen-2(3H)-ylidene)methyl)furan-2-yl)benzamide]
32 | 4.00 to 4.70 | 4.00 to 4.70 | – | O=C(Nc1ccccc1)c1cccc(-c2ccc(/C=C3\Sc4ccccc4C3=O)o2)c1 [#15, (Z)-3-(5-((3-Oxobenzo[b]thiophen-2(3H)-ylidene)methyl)furan-2-yl)-N-phenylbenzamide]
33 | 4.00 to 4.70 | 4.00 to 4.70 | – | COc1ccc(-c2ccc(/C=C3\Sc4ccccc4C3=O)o2)cc1C(=O)Nc1ccccc1 [#18, (Z)-2-Methoxy-5-(5-((3-oxobenzo[b]thiophen-2(3H)-ylidene)methyl)furan-2-yl)-N-phenylbenzamide]
34 | 4.00 to 4.70 | 4.70 to 6.00 | – | O=C(O)c1cc(-c2ccc(/C=C3\Sc4ccccc4C3=O)o2)ccc1F [#32]
35 | 4.00 to 4.70 | 4.00 to 4.70 | – | O=C1NC(=O)/C(=C/c2ccc(-c3cccc(C(=O)Nc4ccccc4)c3)o2)S1 [#39]
36 | 4.00 to 4.70 | 4.70 to 6.00 | – | COc1ccc(-c2ccc(/C=C3\Sc4ccccc4C3=O)o2)cc1C(=O)O [#35]
37 | 4.70 to 6.00 | 4.70 to 6.00 | – | O=C(O)c1cccc(-c2ccc(/C=C3\Sc4ccccc4C3=O)o2)c1 [#31]
